Data published in ChEMBL document CHEMBL1130641, “5,5-trans lactone-containing inhibitors of serine proteases: identification of a novel, acylating thrombin inhibitor” (Bioorg Med Chem Lett, 1998).

Columns and labels:
Prothrombin = Prothrombin (Homo sapiens, UniProt P00734); test: Inhibition of thrombin
Serine protease 1 = Serine protease 1 (Homo sapiens, UniProt P07477); test: Inhibition of trypsin
Coagulation factor X = Coagulation factor X (Homo sapiens, UniProt P00742); test: Compound was evaluated for the inhibition of Coagulation factor X
Coagulation factor X, sequence (P00742 41-179 limits assumed): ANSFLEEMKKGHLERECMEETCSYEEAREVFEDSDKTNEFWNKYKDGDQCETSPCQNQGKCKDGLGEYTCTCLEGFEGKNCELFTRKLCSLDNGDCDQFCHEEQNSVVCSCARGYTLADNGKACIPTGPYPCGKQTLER
Coagulation factor X, sequence (P00742 235-488 limits assumed): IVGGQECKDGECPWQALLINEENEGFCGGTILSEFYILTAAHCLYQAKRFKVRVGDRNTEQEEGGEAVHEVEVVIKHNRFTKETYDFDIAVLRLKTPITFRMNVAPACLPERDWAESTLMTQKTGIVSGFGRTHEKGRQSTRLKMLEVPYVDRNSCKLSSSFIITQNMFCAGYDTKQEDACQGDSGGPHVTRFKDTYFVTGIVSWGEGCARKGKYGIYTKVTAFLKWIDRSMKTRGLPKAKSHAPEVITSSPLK

Neutrophil elastase = target: T1, Neutrophil elastase (Homo sapiens, UniProt P08246); test: Compound was evaluated for the inhibition of human leukocyte elastase(HLE).
T1 sequence (P08246 whole entry): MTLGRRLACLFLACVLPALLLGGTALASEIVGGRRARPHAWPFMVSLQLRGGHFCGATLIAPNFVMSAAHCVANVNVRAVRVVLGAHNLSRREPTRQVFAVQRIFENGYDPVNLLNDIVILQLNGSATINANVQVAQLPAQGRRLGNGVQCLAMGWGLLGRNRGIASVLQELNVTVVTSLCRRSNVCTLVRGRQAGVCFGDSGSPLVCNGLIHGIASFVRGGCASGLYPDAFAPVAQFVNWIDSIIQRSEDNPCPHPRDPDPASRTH

Serine protease 1, sequence (P07477 whole entry): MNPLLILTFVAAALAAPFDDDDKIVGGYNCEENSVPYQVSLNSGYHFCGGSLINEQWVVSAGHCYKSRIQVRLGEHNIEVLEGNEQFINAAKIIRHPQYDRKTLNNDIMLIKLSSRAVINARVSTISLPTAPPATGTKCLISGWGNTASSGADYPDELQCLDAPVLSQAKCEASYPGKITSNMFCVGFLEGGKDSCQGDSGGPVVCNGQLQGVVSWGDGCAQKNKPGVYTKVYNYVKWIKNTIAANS

Structure (SMILES)	IC50 (Prothrombin) [µM]	IC50 (Serine protease 1) [µM]	IC50 (Coagulation factor X) [µM]	IC50 (Neutrophil elastase) [µM]
C=CC[C@H]1C(=O)O[C@H]2CCC[C@@H]21	> 50	–	–	–
CC(C)=CC(=O)C[C@@H]1C(=O)O[C@H]2CCC[C@@H]21	0.021	–	–	–
O=C1O[C@H]2CCC[C@@H]2[C@H]1Cc1ccccc1	92	–	–	–
C=CC[C@@H]1C(=O)O[C@H]2CCC[C@@H]21	98	–	–	–
N=C(N)c1cccc(C[C@H]2C(=O)O[C@H]3CCC[C@@H]32)c1	> 100	3.3	–	–
CC(C)=CC(=O)C[C@@H]1C(=O)O[C@H]2CCCC21 (some centres not stated)	0.019	–	–	–

Now from value to compound:

IC50 (Prothrombin) [µM]	IC50 (Serine protease 1) [µM]	IC50 (Coagulation factor X) [µM]	IC50 (Neutrophil elastase) [µM]	Structure (SMILES)
73	–	–	–	O=C1O[C@H]2CCC[C@@H]2[C@@H]1Cc1ccccc1
0.13	0.04	10.3	–	N=C(N)CCCC[C@H]1C(=O)O[C@H]2CCC[C@@H]21
16.8	0.22	–	–	N=C(N)c1ccc(C[C@H]2C(=O)O[C@H]3CCC[C@@H]32)cc1
0.046	0.07	> 20	> 10	CC(C)=CC(=O)C[C@H]1C(=O)O[C@H]2C[C@]3(C)C4=CC[C@@H]5[C@](C)(CC[C@H]6OC(=O)[C@@]56C)[C@H]4CC[C@@]3(C)[C@@H]21
